TGI and GI50 data for eight compounds are collected here from PubChem BioAssay (NCI).

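Dose response: 5 concentrations. Exposure: 48 h. Format: 96-well plates. Endpoint: linear interpolation; highest concentration if not reached. Abbreviation: GI50, concentration required for 50% inhibition of growth. TGI: concentration producing complete growth inhibition.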 Where only a bound is given, the exact number is not on record here.

What all share (test): NCI-60 cell line screen, 48 h
For assay [1], the system named is DLD-1 colon.
Assay [2] concerns DMS 114 small cell lung.
The subject of assay [3] is DMS 273 small cell lung.
Assay [4] has as its system HOP-92 NSCLC.
The subject of assay [5] is K-562 leukemia.
Assay [6] has as its system MCF7 breast.
In assay [7] the test system is NCI-H226 lung.
The subject of assay [8] is SF-539 CNS.
Assay [9] deals with SK-MEL-2 melanoma.
Assay [10] has as its system SNB-78 CNS.
The test system of assay [11] is T-47D breast.

In the case of `CCCC/C=C1/CCC(CN(C)C)C1=O` (configuration not stated), the TGI was found to be 2.16 µM in [1]; 3.92 µM in assay [2]; 5.76 µM in assay [3]; 3.83 µM in assay [4]; 3.79 µM in assay [5]; 4.34 µM in [6]. Also, the TGI in assay [7] is 22.8 µM; in assay [8], 6.05 µM; in assay [9], 10.1 µM; in assay [10] it was 5.21 µM; in assay [11], 2.64 µM.

On to `Cc1nc(Nc2ccc(Cl)c(Cl)c2)sc1C(/C=C/c1ccc2c(c1)OCO2)=N/Nc1ccc([N+](=O)[O-])cc1[N+](=O)[O-]`, for which the TGI in assay [1], in assay [2], in assay [3], in [4], in assay [5] and in assay [6] was over 100 µM each time. For the same compound, the TGI in assay [7] is over 100 µM; in [8], over 91.6 µM; in [9], over 100 µM; in assay [10], 25.9 µM; in assay [11], over 100 µM.

In the case of `NC(=O)N1N=C2c3ccccc3OC[C@H]2[C@@H]1c1ccccc1`, the TGI in assay [1] was over 100 µM; in assay [2], 34.2 µM; in [3], over 100 µM; in [4], over 100 µM; in [5] it was over 100 µM; in assay [7], 74.7 µM. Besides, the figures for the TGI in assay [8], in [9] and in [10] were 19.1 µM, over 100 µM and over 95.3 µM, respectively.

Regarding `CN(C)CC(=O)N1CCc2c([nH]c3ccccc23)C1c1cccnc1` (configuration not stated), the TGI in assay [1] was over 100 µM; in assay [2], over 100 µM; in assay [3], 1.37 µM; in assay [4], over 100 µM; in assay [5], over 100 µM; in assay [6], over 100 µM. The TGI in assay [7], in assay [8], in assay [9], in [10] and in [11] was over 100 µM in each case. Also, the GI50 in [6] was 70.2 µM; in [7], over 100 µM; in [9], over 100 µM; in assay [11], over 100 µM.

Turning to `CC1(C)O[C@@H](CCl)C[C@@H](C#N)O1`, the TGI in assay [1], in assay [2], in assay [3], in [4], in [5] and in [7] was over 100 µM throughout. Also, the TGI in [8], in assay [9] and in assay [10] was over 100 µM in each case.

As to `Clc1ccc(/C=C/c2csnn2)cc1`, the TGI in assay [1], in assay [2], in [3], in [4], in assay [5] and in [7] was over 100 µM in each case. Besides, the TGI in assay [8], in assay [9] and in [10] was over 100 µM in each case.

As for `COC(=O)C1C(=O)NC2(C)CC1c1ccccc1O2` (configuration not stated), the TGI in assay [1], in assay [2], in assay [3], in assay [4], in [5] and in assay [7] was over 100 µM in each case. Moreover, the TGI in assay [8], in assay [9] and in assay [10] was over 100 µM throughout.

On to `O=C(O)c1cc2ccc(Cl)cc2c(O)c1C1=CCCCC1`, for which the TGI in assay [1] was over 100 µM; in [2] it was 63.6 µM; in assay [3], 68.8 µM; in assay [4], 85.9 µM; in assay [5], over 100 µM; in [7] it was 68.3 µM. Further, the results for the TGI in [8], in assay [9] and in assay [10] were over 100 µM, 63.8 µM and over 100 µM, respectively.
